The results in this text go back to patent US20240246948A1, “BENZAMIDE DERIVATIVE, METHOD FOR PREPARING SAME, AND PHARMACEUTICAL COMPOSITION FOR PREVENTION OR TREATMENT OF CANCER CONTAINING SAME AS ACTIVE INGREDIENT” (HK INNO.N CORPORATION, priority 2021, published 2024).

Experiment [1] addresses Ba/F3 EGFR L858R/T790M/C797S (LTC) (Homo sapiens, UniProt P00533, T790M/C797S/L858R, cells depend on it). In words: Cell growth inhibitory ability in Ba/F3 cells overexpressing EGFR L858R/T790M/C797S (MTS, CellTiter 96 AQueous). In kind it is cell-based. The following applies: 72 hours, MTS absorbance at 490 nm, read-out: Ba/F3 EGFR triple mutant L858R/T790M/C797S, IC50. On the procedure:
(§1) In order to confirm that the compound represented by formula 1 provided in one aspect of the present invention acts as an allosteric inhibitor against WT and mutant of EGFR, the cell growth inhibitory effect was evaluated in BaF3 cells overexpressing WT and mutant of EGFR.
(§2) More specifically, the cell growth inhibitory ability of the compound of the present invention to the Ba/F3 cell line overexpressing WT and mutant of EGFR was evaluated using CellTiter 96 AQueous Non-Radioactive Cell Proliferation Assay system of Promega, as follows. AQueous Non-Radioactive Cell Proliferation Assay is a method of confirming cell growth inhibitory ability by measuring the degree of color development by reducing MTS (3-(4,5-Dimethylthiazol-2-yl)-5-(3-carboxymethoxyphenyl)-2-(4-sulfophenyl)-2H-tetrazolium) to Formazan by a reductase secreted by mitochondria present in living cells in a cell culture state. The Ba/F3 EGFR WT and Ba/F3 EGFR del19/T790M/C797S (DTC), Ba/F3 EGFR L858R (L), Ba/F3 EGFR L858R/T790M (LT), and Ba/F3 EGFR L858R/T790M/C797S (LTC) mutation cell lines used in the present invention were purchased from the laboratory of Professor Byung-cheol Cho, Yonsei University. All cell lines were cultured in RPMI supplemented with 10% FBS, 1% penicillin-streptomycin and 1 μg/ml of puromycine in a 5% CO2 incubator at 37° C.
(§3) The cell survival inhibitory effect of the compound according to each EGFR mutation was analyzed by the following analysis method.
(§4) BaF3 cells were distributed in a 96-well cell culture plate at the density of 2000˜10000 cells/100 μL/well, and cultured for 24 hours. Thereafter, the concentration of the compound represented by formula 1 provided in one aspect of the present invention was prepared to double the final concentrations of 0.1 nM, 1 nM, 10 nM, 100 nM, 1000 nM and 10000 nM, and the compound was treated to the plate (100 μL/well). The plate was reacted in an incubator at 37° C. for 72 hours. Then, MTS was treated to the plate (20 μL/well) and the plate was incubated at 37° C. for 2 to 4 hours. Finally, after measuring the absorbance at 490 nm using a microplate reader, the relative value compared to 0 nM (% Control) was obtained to confirm the cell growth inhibitory ability of the compound. The measured values were analyzed using Prism program (version 8.0, Graphpad Software, Inc.), and the IC50 value (Inhibition concentration 50), an indicator of the cell growth inhibitory ability of the compound, was calculated.

Experiment [2] has as its target Ba/F3 EGFR L858R/T790M (LT) (Homo sapiens, UniProt P00533, T790M/L858R, cells depend on it). Kind of experiment: Cell growth inhibitory ability in Ba/F3 cells overexpressing EGFR L858R/T790M (MTS, CellTiter 96 AQueous). In kind it is cell-based. The settings on record: 72 hours, MTS absorbance at 490 nm, read-out: Ba/F3 EGFR double mutant L858R/T790M, IC50. On the procedure: as §1, §2, §3, §4

Ba/F3 EGFR L858R/T790M (LT), sequence (P00533 whole entry T790M/L858R): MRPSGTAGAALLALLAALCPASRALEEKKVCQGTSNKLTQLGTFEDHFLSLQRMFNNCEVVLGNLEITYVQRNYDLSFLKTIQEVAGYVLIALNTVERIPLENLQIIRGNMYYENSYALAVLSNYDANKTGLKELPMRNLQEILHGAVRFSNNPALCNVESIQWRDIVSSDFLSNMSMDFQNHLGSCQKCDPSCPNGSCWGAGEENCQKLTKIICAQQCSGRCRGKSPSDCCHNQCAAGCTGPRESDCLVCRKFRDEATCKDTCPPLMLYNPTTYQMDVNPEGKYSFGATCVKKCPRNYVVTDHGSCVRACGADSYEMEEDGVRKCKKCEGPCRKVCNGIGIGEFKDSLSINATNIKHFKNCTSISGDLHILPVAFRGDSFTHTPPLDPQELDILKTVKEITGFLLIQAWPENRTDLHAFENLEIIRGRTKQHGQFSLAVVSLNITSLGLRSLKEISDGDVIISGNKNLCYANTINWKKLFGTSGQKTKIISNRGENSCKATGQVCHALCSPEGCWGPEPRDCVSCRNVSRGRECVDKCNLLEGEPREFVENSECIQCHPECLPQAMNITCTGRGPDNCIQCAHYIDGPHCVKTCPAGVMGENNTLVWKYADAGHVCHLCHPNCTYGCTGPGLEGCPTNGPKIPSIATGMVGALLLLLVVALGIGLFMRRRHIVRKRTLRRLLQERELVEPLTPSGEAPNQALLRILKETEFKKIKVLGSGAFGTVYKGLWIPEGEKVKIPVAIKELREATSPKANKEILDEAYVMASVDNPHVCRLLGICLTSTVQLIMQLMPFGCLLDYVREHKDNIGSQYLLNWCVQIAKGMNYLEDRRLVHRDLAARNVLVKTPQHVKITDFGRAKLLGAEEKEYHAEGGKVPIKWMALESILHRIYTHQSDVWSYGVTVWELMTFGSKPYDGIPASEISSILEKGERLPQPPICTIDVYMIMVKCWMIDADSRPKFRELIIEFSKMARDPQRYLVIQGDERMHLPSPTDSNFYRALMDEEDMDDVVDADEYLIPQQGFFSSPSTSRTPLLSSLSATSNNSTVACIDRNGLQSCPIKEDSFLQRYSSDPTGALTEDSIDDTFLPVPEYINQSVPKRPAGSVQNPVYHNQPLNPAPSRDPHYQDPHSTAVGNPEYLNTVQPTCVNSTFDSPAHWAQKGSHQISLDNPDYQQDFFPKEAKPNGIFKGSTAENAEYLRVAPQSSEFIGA
Ba/F3 EGFR L858R/T790M/C797S (LTC), sequence (P00533 whole entry T790M/C797S/L858R): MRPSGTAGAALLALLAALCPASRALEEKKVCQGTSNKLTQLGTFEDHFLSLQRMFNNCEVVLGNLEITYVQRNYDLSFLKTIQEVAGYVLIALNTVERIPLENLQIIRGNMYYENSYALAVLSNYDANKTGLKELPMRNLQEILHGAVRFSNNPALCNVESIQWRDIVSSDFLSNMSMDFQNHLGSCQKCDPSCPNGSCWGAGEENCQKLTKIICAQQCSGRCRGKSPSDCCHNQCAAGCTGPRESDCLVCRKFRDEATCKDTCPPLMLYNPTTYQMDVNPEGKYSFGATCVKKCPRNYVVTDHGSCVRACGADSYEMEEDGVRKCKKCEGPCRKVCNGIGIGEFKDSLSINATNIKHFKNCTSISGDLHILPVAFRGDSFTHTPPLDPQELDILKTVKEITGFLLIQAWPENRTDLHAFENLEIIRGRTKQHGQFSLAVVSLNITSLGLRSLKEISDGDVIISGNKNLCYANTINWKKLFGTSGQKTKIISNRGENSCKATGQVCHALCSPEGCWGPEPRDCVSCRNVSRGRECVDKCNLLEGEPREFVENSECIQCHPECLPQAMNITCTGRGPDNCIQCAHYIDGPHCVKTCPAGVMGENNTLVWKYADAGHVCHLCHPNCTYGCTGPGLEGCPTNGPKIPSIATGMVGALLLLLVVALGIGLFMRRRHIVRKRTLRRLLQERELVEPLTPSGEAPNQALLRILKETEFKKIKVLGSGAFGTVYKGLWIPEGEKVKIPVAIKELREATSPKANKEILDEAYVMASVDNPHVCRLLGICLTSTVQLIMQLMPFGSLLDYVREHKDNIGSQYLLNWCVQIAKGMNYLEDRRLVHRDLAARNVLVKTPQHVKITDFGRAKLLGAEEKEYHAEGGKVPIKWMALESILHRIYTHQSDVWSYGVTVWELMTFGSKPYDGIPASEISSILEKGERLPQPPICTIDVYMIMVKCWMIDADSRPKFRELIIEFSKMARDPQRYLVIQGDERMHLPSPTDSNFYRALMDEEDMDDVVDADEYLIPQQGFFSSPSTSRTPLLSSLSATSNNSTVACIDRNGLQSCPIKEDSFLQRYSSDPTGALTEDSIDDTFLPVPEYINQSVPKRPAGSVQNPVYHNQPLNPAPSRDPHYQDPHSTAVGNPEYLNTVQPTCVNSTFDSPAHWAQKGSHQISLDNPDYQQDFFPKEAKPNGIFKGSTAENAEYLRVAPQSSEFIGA

Consider `COc1ccc(F)cc1[C@@H](NC(=O)c1cc(OC(F)(F)F)cc(-c2ccc(N3CCC(N)CC3)cc2)c1)c1cc2ccccc2[nH]1` [Example 12, (R)-4′-(4-aminopiperidine-1-yl)-N-((5-fluoro-2-methoxyphenyl)(1H-indole-2-yl)methyl)-5-(trifluoromethoxy)-[1,1′-biphenyl]-3-carboxamide], for which the GI50 in experiment [1] was more than 200 nM; in experiment [2] it was 30 to 200 nM.
For `NC1CCN(c2ccc(-c3cc(C(=O)N[C@@H](c4cc5ccccc5[nH]4)c4cc(F)ccc4O)cc([N+](=O)[O-])c3)cc2)CC1` [Example 7, 4′-(4-aminopiperidine-1-yl)-N-((5-fluoro-2-hydroxyphenyl)(1H-indole-2-yl)methyl)-5-nitro-[1,1′-biphenyl]-3-carboxamide], in that order: more than 200 nM and more than 200 nM.
For `Cc1cc(C(=O)N[C@@H](c2cc3ccccc3[nH]2)c2cc(F)ccc2O)cc(-c2ccc(N3CCC(N)CC3)c(F)c2)c1` [Example 22, (R)-4′-(4-aminopiperidine-1-yl)-3′-fluoro-N-((5-fluoro-2-hydroxyphenyl)(1H-indole-2-yl)methyl)-5-methyl-[1,1′-biphenyl]-3-carboxamide], in that order: less than 30 nM and less than 30 nM.
For `Cc1cc(C(=O)N[C@@H](c2cc3ccccc3[nH]2)c2cc(F)ccc2O)cc(-c2ccc(N3CCC(N)CC3)cn2)c1` [Example 17, (R)-3-(5-(4-aminopiperidine-1-yl)pyridine-2-yl)-N-((5-fluoro-2-hydroxyphenyl)(1H-indole-2-yl)methyl)-5-methylbenzamide] the same measures were less than 30 nM and less than 30 nM.
For `Cc1cc(C(=O)N[C@@H](c2cc3ccccc3[nH]2)c2cc(F)ccc2O)cc(-c2ncc(N3CCCCC3)cn2)c1` [Example 40, N—[(R)-(5-fluoro-2-hydroxy-phenyl)-(1H-indole-2-yl)methyl]-3-methyl-5-[5-(1-piperidyl)pyrimidine-2-yl]benzamide], the results for the GI50 in experiment [1] and in experiment [2] were 30 to 200 nM and less than 30 nM, respectively.
For `Cc1cc(C(=O)N[C@@H](c2cc3ccccc3[nH]2)c2cc(F)ccc2O)cc(-c2ccc(CN3CCC(N(C)C)CC3)cn2)c1` [Example 42] the same measures were 30 to 200 nM and less than 30 nM.
For `Cc1cc(C(=O)N[C@@H](c2cc3ccccc3[nH]2)c2cc(F)ccc2O)cc(-c2ccc(N3CCC(N)CC3)cc2)c1` [Example 1, (R)-4′-(4-aminopiperidine-1-yl)-N-((5-fluoro-2-hydroxyphenyl)(1H-indole-2-yl)methyl)-5-methyl-[1,1′-biphenyl]-3-carboxamide], in that order: less than 30 nM and less than 30 nM.
As for `NC1CCN(c2ccc(-c3cc(C(=O)N[C@@H](c4cc5ccccc5[nH]4)c4cc(F)ccc4O)cc(-n4ccnc4)c3)cc2)CC1` [Example 13, (R)-4′-(4-aminopiperidine-1-yl)-N-((5-fluoro-2-hydroxyphenyl)(1H-indole-2-yl)methyl)-5-(1H-imidazole-1-yl)-[1,1′-biphenyl]-3-carboxamide], the GI50 in experiment [1] and in experiment [2] was more than 200 nM throughout.
For the molecule `Cc1cc(C(=O)N[C@@H](c2cc3ccccc3[nH]2)c2cc(F)ccc2O)cc(-c2ncc(N3CCC(N(C)C)CC3)cn2)c1` [Example 39, 3-[5-[4-(dimethylamino)-1-piperidyl]pyrimidine-2-yl]-N—[(R)-(5-fluoro-2-hydroxy-phenyl)-(1H-indole-2-yl)methyl]-5-methyl-benzamide], the GI50 in experiment [1] and in experiment [2] was less than 30 nM throughout.
For `Cc1c(C(=O)N[C@@H](c2cc3ccccc3[nH]2)c2cc(F)ccc2O)cccc1-c1ccc(N2CCC(N)CC2)cc1` [Example 30, (R)-4′-(4-aminopiperidine-1-yl)-N-((5-fluoro-2-hydroxyphenyl) (1H-indole-2-yl)methyl)-2-methyl-[1,1′-biphenyl]-3-carboxamide], the GI50 in experiment [1] and in experiment [2] was more than 200 nM each time.
Turning to `NC1CCN(c2ccc(-c3cc(F)cc(C(=O)N[C@@H](c4cc5ccccc5[nH]4)c4cc(F)ccc4O)c3)cc2)CC1` [Example 5, (R)-4′-(4-aminopiperidine-1-yl)-5-fluoro-N-((5-fluoro-2-hydroxyphenyl)(1H-indole-2-yl)methyl)-[1,1′-biphenyl]-3-carboxamide], the GI50 in experiment [1] is more than 200 nM; in experiment [2] it was less than 30 nM.
For `Cc1cc(C(=O)N[C@@H](c2cc3ccccc3[nH]2)c2cc(F)ccc2O)cc(-c2ncc(N3CCN(C4CCN(C)CC4)CC3)cn2)c1` [Example 41, N—[(R)-(5-fluoro-2-hydroxy-phenyl)-(1H-indole-2-yl)methyl]-3-methyl-5-[5-[4-(1-methyl-4-piperidyl)piperazine-1-yl]pyrimidine-2-yl]benzamide], the GI50 in experiment [1] and in experiment [2] was less than 30 nM in each case.
For `Cc1cc(C(=O)N[C@@H](c2cc3ccccc3[nH]2)c2cc(F)ccc2O)cc(-c2ncc(N3CC[C@@H](N)C3)cn2)c1` [Example 44, 3-[5-[(3R)-3-aminopyrrolidine-1-yl]pyrimidine-2-yl]-N—[(R)-(5-fluoro-2-hydroxy-phenyl)-(1H-indole-2-yl)methyl]-5-methyl-benzamide], the GI50 in experiment [1] and in experiment [2] was less than 30 nM each time.
`Cc1cc(C(=O)N[C@@H](c2cc3ccccc3[nH]2)c2cc(F)ccc2O)cc(-c2cnc(N3CCC(N)CC3)cn2)c1` [Example 18, (R)-3-(5-(4-aminopiperidine-1-yl)pyrazine-2-yl)-N-((5-fluoro-2-hydroxyphenyl)(1H-indole-2-yl)methyl)-5-methylbenzamide]: the GI50 in experiment [1] and in experiment [2] was less than 30 nM each time.
Regarding `CCN(CC)C1CCN(c2cnc(-c3cc(C)cc(C(=O)N[C@@H](c4cc5ccccc5[nH]4)c4cc(F)ccc4O)c3)nc2)CC1` [Example 45, (R)-3-(5-(4-(diethylamino)piperidine-1-yl)pyrimidine-2-yl)-N-((5-fluoro-2-hydroxyphenyl)(1H-indole-2-yl)methyl)-5-methylbenzamide], the GI50 in experiment [1] and in experiment [2] was less than 30 nM in each case.
Consider `COc1ccc(F)cc1[C@@H](NC(=O)c1ccnc(-c2ccc(N3CCC(N)CC3)cc2)c1)c1cc2ccccc2[nH]1` [Example 15, (R)-2-(4-(4-aminopiperidine-1-yl)phenyl)-N-((5-fluoro-2-methoxyphenyl)(1H-indole-2-yl)methyl)isonicotinamide], for which the GI50 in experiment [1] and in experiment [2] was more than 200 nM in each case.
Consider `NC1CCN(c2ccc(-c3cc(C(=O)N[C@@H](c4cc5ccccc5[nH]4)c4cc(F)ccc4O)cc(C(F)(F)F)c3)cc2)CC1` [Example 6, 4′-(4-aminopiperidine-1-yl)-N-((5-fluoro-2-hydroxyphenyl)(1H-indole-2-yl)methyl)-5-(trifluoromethyl)-[1,1′-biphenyl]-3-carboxamide], for which the GI50 in experiment [1] and in experiment [2] was more than 200 nM each time.
With `Cc1cc(C(=O)N[C@@H](c2cc3ccccc3[nH]2)c2cc(F)ccc2O)cc(-c2ncc(N3CCC(O)CC3)cn2)c1` [Example 49, (R)—N-((5-fluoro-2-hydroxyphenyl)(1H-indole-2-yl)methyl)-3-(5-(4-hydroxypiperidine-1-yl)pyrimidine-2-yl)-5-methylbenzamide], the GI50 in experiment [1] was less than 30 nM.
